What was measured:
Assay type in all cases: cell-based
[1] = tested on: human microvascular endothelial cells; experiment: Tube formation of human microvascular endothelial cells on matrigel (length of tube structures); settings: 18 hours incubation, various concentrations, FIG. 4
Method: (§1) According to the method of Example 1 (1), human microvascular endothelial cells were cultured to prepare a cell suspension. Number of viable cells was counted under a phase-contrast microscopy using a hemocytometer and cell concentration was adjusted to 4×10^4 cells/ml.
Tranilast was added to 1% aqueous sodium bicarbonate solution to prepare 1.0% solution and dissolved by warming at 70° C. The solution was sterilized with millipore filter and diluted with MVE medium to a prescribed final concentration.
An aliquot (0.25 ml) of matrigel (10 mg/ml, Becton Dickinson Labware) was added to a 24-well culture plate (Corning) and was then allowed to solidify by incubation at 37° C. for 1 hour. Suspension (0.25 ml) of human microvascular endothelial cells (4×10^4 cells) and MVE medium (0.25 ml) containing various concentrations of Tranilast were added onto the gel. After 18 hours incubation at 37° C., 5 random fields of one well were photographed at ×40 magnification using a phase-contrast microscopy. The lengths of the tube structures were measured and the mean value was calculated.

[2] = tested on: human microvascular endothelial cells; experiment: Tube formation of human microvascular endothelial cells on matrigel (number of formed network); settings: 18 hours incubation, various concentrations, FIG. 3
Method: as §1
Tranilast was added to 1% aqueous sodium bicarbonate solution to prepare 0.5% solution and dissolved by warming at 70° C. The solution was sterilized with millipore filter and diluted with MVE medium to a prescribed final concentration.
An aliquot (0.25 ml) of matrigel (10 mg/ml, Becton Dickinson Labware) was added to a 24-well culture plate (Corning) and was then allowed to solidify by incubation at 37° C. for 1 hour. Suspension (0.25 ml) of human microvascular endothelial cells (4×10^4 cells) and MVE medium (0.25 ml) containing various concentrations of Tranilast were added onto the gel.

[3] = tested on: human microvascular endothelial cells; experiment: Inhibition of chemotaxis of human microvascular endothelial cells to VEGF; settings: chemotaxis to 100 ng/ml VEGF, 5 hours, 96-well micro chemotaxis chamber, FIG. 2
Method: According to the method of Example 1 (1), human microvascular endothelial cells were cultured to prepare a cell suspension. Number of viable cells was counted under a phase-contrast microscopy using a hemocytometer and cell concentration was adjusted to 2×10^4 cells/ml.
Tranilast was added to 1% aqueous sodium bicarbonate solution to prepare 0.55% solution and dissolved by warming at 70° C. The solution was sterilized with millipore filter and diluted with DMEM+Ham (1:1) medium to a prescribed final concentration.
Chemotaxis of human dermal microvascular endothelial cells (prepared in (1)) to vascular endothelial growth factor (VEGF) was studied using a 96-well micro chemotaxis chamber (Neuro Probe Inc.). An aliquot (32 μl) of DMEM+Ham (1:1) medium containing 100 ng/ml of VEGF, 0.1% bovine serum and various concentrations of Tranilast was added to the lower cavity of the chemotaxis chamber. An aliquot (50 μl) of medium containing cell suspension and Tranilast was added to the upper cavity of the chamber. Polycarbonate filter (10 μm thickness with 8 μm pore size; Neuro Probe Inc.) coated with type-1 collagen was used for the chemotaxis membrane. […] Number of migrated cells was counted in 5 random fields at ×400 magnification under a phase-contrast microscopy and mean chemotaxis cell number was calculated.
(§2) Mean and standard variation value of each group were calculated. […]

[4] = tested on: human microvascular endothelial cells; experiment: Inhibition of proliferation of human microvascular endothelial cells; settings: normal human dermal microvascular endothelial cells, 2 days incubation with various concentrations, FIG. 1
Method: Normal human dermal microvascular endothelial cells (Cell Systems Corporation) were subcultured in a medium (MVE medium, Cell Systems Corporation) for endothelial cell culture and used for the study. At the logarithmic growth phase, the medium was aspirated and cells were washed with phosphate-buffered saline (PBS(−)) which was added gentlely. Then, the PBS(−) was aspirated, an aliquot of 0.25% trypsin solution containing 0.02% EDTA was added to the culture plate, and the morphology of cells was observed under a phase-contrast microscopy. When cells were going to be round, an equal value of MVE medium was added to the trypsin solution to stop the action of trypsin. Attached cells were harvested from the plate by pipetting the medium using a slender pasture pipette. […] Number of viable cells in an aliquot of the suspension was counted under a phase-contrast microscopy using a hemocytometer. […]
Cell suspension (1 ml) was added to collagen-coated 6-well plate(Toyobo Engineering Co., Ltd.) and cultured at 37° C. under a humidified atmosphere of 5% CO2 in air. […] After harvesting cells from the plate by pipetting using a pasture pipete, number of viable cells was counted using a hemocytometer.
as §2

## COc1ccc(/C=C/C(=O)Nc2ccccc2C(=O)O)cc1OC [Tranilast, N-(3,4-Dimethoxycinnamoyl)anthranilic acid]
[1]
  length of the tube structure (tube formation): significantly reduced in a concentration-dependent manner
[2]
  number of the formed network (tube formation): significantly reduced in a concentration-dependent manner
[3]
  chemotaxis of human microvascular endothelial cells (number of migrated cells): significantly suppressed
[4]
  proliferation of human microvascular endothelial cells (number of viable cells): significantly suppressed
